From patent US20230011398A1, “COMBINATION THERAPY APPROACH TO ELIMINATE HIV INFECTIONS” (priority 2019, published 2023)

Key:
[1] = tested on: CMT latently infected with HIV-1; assay: HIV-1 latency reversal in latently infected central memory T cells (p24 staining, HIV-1 mRNA RT-PCR); assay type: cell-based, human; conditions: latently infected cells, pol RT-PCR
Source text: Flow cytometry. The following antibodies from Biolegend were used for flow cytometry: Pacific Blue-anti-mouse CD45 (1:100, 103126, clone 30-F11,) APC-anti-human CD45 (1:100, 304012, clone HI30), Pacific Blue-anti-human CD19 (1:100, 302232, clone HIB19), PE-anti-human CD4 (1:100, 317414, clone OKT4), APC/Fire-750-anti-human CD8 (1:100, 34474, clone SK1), FITC-anti-human CD56 (1:100, 392413, clone QA17A16), Pacific Blue-anti-human CD19 (1:100, 302232, clone HIB19), Pacific Blue-anti-human CD3 (1:100, 300329, clone HIT3a), PE/Cy7-anti-HLA-HLA-DR, DP, DQ (1:100, 361708, clone Tü139), PerCP/Cy5.5-anti-human CD11b (1:100, 301327, clone ICRF44), APC/Fire-750-anti-human CD163 (1:100, 333633, clone GHI/61), PE-anti-human CD123 (1:100, 306005, clone 6H6), Alexa Fluor 488 anti-human CD11c (1:100, 301618, clone 3.9), PerCP/Cy5.5-anti-human CD3 (1:100, 300328, clone HIT3a), PerCP/Cy5.5 anti-human CD123 (1:100, 306016, clone 6H6), FITC-anti-mouse CD45 (1:100, 103108, clone 30-F11), PE/Cy7 anti-human CD197 (CCR7) (1:100, 353226, clone G043H7), PE-anti-human CD45R0 (1:100, 304244, clone UCHL1), FITC-anti-human CD45RA (1:100, 304148, clone HI100) and Alexa Fluor 488-anti-CD68 (1:30, 333812, clone Y1/82A), PerCP/Cy5.5-anti-human CD19 (1:100, 302230, clone HIB19), PE-anti-human CD27 (1:100, 356406, clone M-T271) and Pacific Blue-anti-human IgD (1:100, 348224, clone IA6-2). PE-anti-human CD3 (1:100, 556612, clone SP34) and V50-anti-human CD4 (1:100, 560345, clone RPA-T4) were from BD Biosciences. The cells stained with indicated antibodies were analyzed using a BD LSR II flow cytometer (BD Biosciences). To detect HIV-1 p24, spleen cells from Hu-HSC mice were stimulated with 5 μg/ml PHA (Sigma) and 6 ng/ml IL-2 (Biolegend). The cells were stained for T cell markers, followed by fixation and permeabilization using the Cytofix/Cytoperm buffer (BD Bioscience) and intracellular staining with PE-conjugated anti-p24 (1:30, 6604667, clone KC57, Beckman Coulter). The cells were analyzed by flow cytometry using a BD LSR II flow cytometer (BD Bioscience) and FlowJo software (version 10.5.3, BD Bioscience).
T cell isolation and infection with HIV-1. Peripheral blood mononuclear cells (PBMCs) of anonymous healthy donors from the Gulf Coast Blood Center were used to purify CD4^+ T cells with anti-CD4 MACS beads (Miltenyi Biotec). CD3^+CD4^+CD45RA^+CD45RO^−CCR7^+ naïve T cells, CD3^+CD4^+CD45RA^−CD45RO^+CCR7+ central memory T cells (CMT) and CD3^+CD4^+CD45RA^−CD45RO^+CCR7^− effector memory T cells (EMT) were sorted using a BD FACSAria flow cytometer (BD Bioscience). Naive CD4^+ T cells were stimulated with 5 μg/ml PHA and 6 ng/ml IL-2 in RPMI complete medium for 2 days to generate activated CD4^+ T cells. Sorted T cell subsets or activated T cells were infected with HIV-1 CXCR4-tropic NL4-3 or CCRS-tropic AD8 (both virus clones were obtained from the NIH AIDS Reagent Program) at the indicated MOI for 2 h. The cells were washed with PBS and cultured in RPMI complete medium containing 30 nM CCL19 (Biolegend) and 0.3 ng/ml IL-2 (Biolegend) and for 4 days to establish latent HIV infection as described.
Naïve T cells, activated T cells, CMT or EMT with or without infection with HIV-1 (NL4-3, 1 MOI) were cultured for 4 days in the presence of 30 nM CCL19 and 0.3 ng/ml IL-2 for 4 days to establish latent HIV infection. The cells with or without HIV-1 infections were stimulated with 0.1 μM IDB (Ingenol-3,20-dibenzonate, ENZO Life Sciences) in the presence of 0.2 μM ABT-263 (Adooq Bioscience), 2 μM SAR405 (MedChemExpress) or 10 μM chloroquine (CQ, Sigma) as indicated for 48 h. The cells were then incubated with 1 μM FITC-DEVD-FMK (Biovision), followed by staining with APC-Annexin V (Biolegend) and intracellular staining with PE-anti-HIV p24. The cells were analyzed by flow cytometry. The percentage of cell death was calculated by the loss of live cells negative for annexin V and DEVD staining by comparing treated and untreated groups: (untreated—treated)/untreated x 100%. […]

[2] = tested on: HIV-1-infected cells and uninfected bystander T cells; assay: Mixed culture of HIV-1-infected and CellTrace Violet-labeled uninfected T cells; conditions: alone or together, 0.2 μM BMS-626529 present, 48 h
Description: To determine the specificity in the killing of HIV-1 infected cells, uninfected CD4 cells were labeled with CellTrace Violet dye (ThermoFisher Scientific) and mixed with HIV-1-infected cells at the ratio of 1:1. The cells were resuspended in RIPMI complete medium containing 0.2 μM BMS-626529, with 0.1 μM IDB, 0.2 μM ABT-263 and 2 μM SAR405 as indicated for 48 h. The cells were incubated with 1 μM FITC-DEVD-FMK, followed by staining with APC-Annexin and analyses by flow cytometry.

In the case of `CC1=C[C@]23C(=O)[C@@H](C=C(COC(=O)c4ccccc4)[C@@H](O)[C@]2(O)[C@H]1OC(=O)c1ccccc1)[C@H]1[C@@H](C[C@H]3C)C1(C)C` [IDB, ingenol 3,20-dibenzoate], the “latency reversal observed by expression of HIV-1 mRNA after stimulation” value [1] is reported as “Latency reversal was also observed”, the “killing of HIV-1-infected cells in mixed culture” value [2] is reported as “killed HIV-1-infected cells” and the “killing of uninfected bystander cells in mixed culture” value [2] is reported as “resistant”.
